The record followed here is patent US4552879A, “Benzoheterocyclic compounds and pharmaceutical composition thereof” (Otsuka Pharmaceutical Co., Ltd., priority 1980, dated 1985).

SMILES strings stand for the structures. ≈ marks a conversion by molar mass, not a printed value. Read-outs that look alike come from different tables or passages of the source. Some results are limits rather than exact numbers.

Common to all, as to experiment: Minimum inhibitory concentration, serial dilution method on agar plate
Holding throughout (type): cell-based

The subject of test [1] is Pseudomonas aeruginosa E-2. Conditions: Pseudomonas aeruginosa, read-out: Minimum Inhibitory Concentration.
Test [2] concerns Pseudomonas aeruginosa ATCC 10145. The following applies: Pseudomonas aeruginosa, read-out: Minimum Inhibitory Concentration.
Test [3] concerns Pseudomonas aeruginosa NCTC 10490. The following applies: for Minimum Inhibitory Concentration: 1×10^6 cells/ml; for MIC: Pseudomonas aeruginosa, NCTC10490, 1×10^8 cells/ml.
In test [4] the test system is Escherichia Coli NIHJ JC-2 (IFO 12734). The following applies: read-out: Minimum Inhibitory Concentration.
In test [5] the test system is Streptococcus pyogenes IID S-23. The following applies: Streptococcus pyogenes, read-out: Minimum Inhibitory Concentration.
Test [6] concerns Serratia marcescens IFO 12648.
The test system of test [7] is Proteus rettgeri NIH 96. Conditions: Providencia rettgeri, read-out: Minimum Inhibitory Concentration.
The test system of test [8] is Klebsiella pneumoniae. The following applies: read-out: Minimum Inhibitory Concentration.
In test [9] the test system is Shigella sonnei EW 33. The method, then:
The antimicrobial activity of the following test compounds on various test organisms listed below was determined by the serial dilution method on agar plate (Heart Infusion agar produced by Difco Co.) (see CHEMOTHERAPY 22, pp. 1126-1128 (1974)), and the minimum inhibitory concentrations (mcg/ml) obtained are shown in Tables 1, 2 and 3 below.
A sample of each test organism was prepared so that the population of the organism was 1×10^8 cells/ml (O.D. 660 mμ=0.07 to 0.16) and 1×10^6 cells/ml (which was obtained by diluting 100 fold the above 1×10^8 cells/ml preparation).

Test [10] concerns Salmonella typhi 0-901 (NCTC 8393). Conditions: Salmonella enterica.
Test [11] deals with Staphylococcus aureus FDA 209 P. The following applies: Staphylococcus aureus, read-out: Minimum Inhibitory Concentration.
[12] abbreviates: read-out: Minimum Inhibitory Concentration, 1×10^6 cells/ml.
Setting [13] is: read-out: Minimum Inhibitory Concentration, 1×10^8 cells/ml.

On to `CC1Cc2c(N3CCOCC3)c(F)cc3c(=O)c(C(=O)O)cn1c23` (centres unmarked) [Compound 7, 9-Morpholino-8-fluoro-2-methyl-1,2-dihydro-6-oxo-pyrrolo[3,2,1-ij]quinoline-5-carboxylic acid], for which the MIC stood at 1.56 µg/mL (≈ 4.69 µM) in test [1] (E2, 1×10^6 cells/ml); 1.56 µg/mL (≈ 4.69 µM) in [1] (E2, 1×10^8 cells/ml); 1.56 µg/mL (≈ 4.69 µM) in test [2] (ATCC10145, 1×10^6 cells/ml); 1.56 µg/mL (≈ 4.69 µM) in test [2] (ATCC10145, 1×10^8 cells/ml); 1.56 µg/mL (≈ 4.69 µM) in [3]; 0.2 µg/mL (≈ 0.602 µM) in [4] (1×10^6 cells/ml). Besides, the MIC in test [4] (1×10^8 cells/ml) was found to be 0.2 µg/mL (≈ 0.602 µM); in [5] (IIDS23, 1×10^6 cells/ml), 0.78 µg/mL (≈ 2.35 µM); in test [5] (IIDS23, 1×10^8 cells/ml), 0.78 µg/mL (≈ 2.35 µM); in [6] (IFO12648, 1×10^6 cells/ml, read-out: Minimum Inhibitory Concentration), 0.2 µg/mL (≈ 0.602 µM); in test [6] (IFO12648, 1×10^8 cells/ml, read-out: Minimum Inhibitory Concentration) it was 0.39 µg/mL (≈ 1.17 µM); in test [7] (NIH96, 1×10^6 cells/ml), 0.05 µg/mL (≈ 0.15 µM). In addition, the MIC in test [7] (NIH96, 1×10^8 cells/ml) came out at 0.05 µg/mL (≈ 0.15 µM); in test [8] (1×10^6 cells/ml), 0.1 µg/mL (≈ 0.301 µM); in test [8] (1×10^8 cells/ml) it was 0.2 µg/mL (≈ 0.602 µM); in test [9] (EW33, 1×10^6 cells/ml), 0.024 µg/mL (≈ 0.0722 µM); in test [9] (EW33, 1×10^8 cells/ml) it was 0.024 µg/mL (≈ 0.0722 µM); in test [10] (setting [12]) it was 0.024 µg/mL (≈ 0.0722 µM). The MIC in test [10] (setting [13]) was 0.024 µg/mL (≈ 0.0722 µM); in [11] (FDA209, 1×10^6 cells/ml) it was 0.024 µg/mL (≈ 0.0722 µM); in [11] (FDA209, 1×10^8 cells/ml), 0.024 µg/mL (≈ 0.0722 µM). The “Minimum Inhibitory Concentration” value in test [3] was 1.56 µg/mL.

Regarding `CC1Cc2c(N3CCN(C(F)(F)F)CC3)c(F)cc3c(=O)c(C(=O)O)cn1c23.Cl` (centres unmarked) [Compound 8, 9-(4-Trifluoromethyl-1-piperazinyl)-8-fluoro-2-methyl-1,2-dihydro-6-oxo-pyrrolo[3,2,1-ij]quinoline-5-carboxylic acid hydrochloride], the MIC in test [1] (E2, 1×10^6 cells/ml) came out at 0.39 µg/mL; in [1] (E2, 1×10^8 cells/ml), 0.39 µg/mL; in test [2] (ATCC10145, 1×10^6 cells/ml), 0.39 µg/mL; in [2] (ATCC10145, 1×10^8 cells/ml) it was 0.39 µg/mL; in [3] it was 0.39 µg/mL; in test [4] (1×10^6 cells/ml), 0.024 µg/mL. Besides, the MIC in test [4] (1×10^8 cells/ml) is 0.05 µg/mL; in test [5] (IIDS23, 1×10^6 cells/ml), 0.39 µg/mL; in test [5] (IIDS23, 1×10^8 cells/ml), 0.78 µg/mL; in test [6] (IFO12648, read-out: Minimum Inhibitory Concentration, 1×10^6 cells/ml), 0.1 µg/mL; in test [6] (IFO12648, read-out: Minimum Inhibitory Concentration, 1×10^8 cells/ml) it was 0.2 µg/mL; in test [7] (NIH96, 1×10^6 cells/ml) it was less than 0.006 µg/mL. Moreover, the MIC in test [7] (NIH96, 1×10^8 cells/ml) was 0.012 µg/mL; in test [8] (1×10^6 cells/ml), 0.012 µg/mL; in test [8] (1×10^8 cells/ml), 0.05 µg/mL; in test [9] (EW33, 1×10^6 cells/ml), no more than 0.006 µg/mL; in test [9] (EW33, 1×10^8 cells/ml) it was 0.012 µg/mL; in test [10] (setting [12]) it was no more than 0.006 µg/mL. The MIC was no more than 0.006 µg/mL in [10] (setting [13]); 0.024 µg/mL in test [11] (FDA209, 1×10^6 cells/ml); 0.05 µg/mL in test [11] (FDA209, 1×10^8 cells/ml). Moreover, the “Minimum Inhibitory Concentration” value in test [3] was 0.39 µg/mL.
